Data as given in patent US20160060285A1, “Aminoglycosides, Methods of Synthesis, and Associated Applications” (UTAH STATE UNIVERSITY, priority 2010, published 2016).
≈ marks a conversion by molar mass, not a printed value. Like-named read-outs stand apart in the source and are kept apart here.

Assays:
[1] = system: Staphylococcus aureus ATCC25923; assay: Bacterial growth inhibition (MIC) test, microtiter plate, CLSI protocol; assay type: cell-based
[2] = system: Fusarium graminearum B4-5A; assay: microbe, parasite or virus in culture; assay type: cell-based
[3] = system: Escherichia coli ATCC 25922; assay: Bacterial growth inhibition (MIC) test, microtiter plate, CLSI protocol; assay type: cell-based; settings: E. coli 25922; Luria-Bertani medium, 37° C., 24 hours
[4] = system: Candida albicans ATCC64124 (azole-resistant); assay: microbe, parasite or virus in culture; assay type: cell-based
[5] = system: azole-resistant Candida albicans ATCC 64124; assay: Antifungal synergism by checkerboard analysis, K-compound and azole combinations; assay type: cell-based; settings: Candida albicans, ATCC64124, K408 checkerboard table, compound alone
[6] = system: HeLa cells; assay: Cell viability assay (MTT), cytotoxicity test; assay type: cell-based, human; settings: for toxicity to human cervical cancer cell line HeLa: 1.0 to 1000 μg/mL; for toxicity to human cervical cancer cell line HeLa / Viable Cells Percentage Compared to Control: 48 h; for Viable Cells Percentage Compared to Control: MTT
Method: HeLa cells were grown in commercial DMEM 1× (Gibco) with 10% fetal bovine serum (FBS, Gibco), 100 U/mL penicillin, and 100 μg/mL streptomycin at 37° C. and 5% CO2. The cells were allowed to adhere for 24 h before drug treatment.
The cells were seeded in 96-well microtiter plates (10,000/200 μL). After 24 h of incubation in the media, cells were treated with various concentrations of K608, K4608 and K408 (0.0, 1.0, 10.0, 100.0, 1000 μg/mL and Trition 1×) for 48 h. 20 μL of MTT stock solution (5 mg/mL) was added to each well and incubated for 4 h at 37° C. Upon completion of incubation, the media was carefully removed and washed twice with […] of pbs buffer. Then, 200 μL of DMSO was added to each well; agitated on orbital shaker for 15 min., and the absorbance at 570 nm with 670 nm filter was determined with a microplate reader (Synergy H4). The results are expressed as viability compared with that of control. The experiment was carried out in triplicate in three independent experiments.

[7] = system: Candida albicans ATCC MYA-2876 (azole sensitive); assay: Fungal MIC and MFC, microbroth dilution assay (M27-A3); assay type: cell-based; settings: C. albicans MYA2876 (azole sensitive)
[8] = S. aureus 25923, 37° C., 24 hours
[9] = F. graminearum B4-5A, RPMI 1640, 35° C., 48 hour

With CCCCOC1C(CO)OC(OC2C(N)CC(N)C(OC3OC(CN)C(O)C(O)C3O)C2O)C(O)C1N (stereo not shown) [Compound K404] the MIC [1, 8] was 4-16 mg per L and the MIC [2, 9] was over 500 mg per L.

CCCCCCOC1C(CO)OC(OC2C(N)CC(N)C(OC3OC(CN)C(O)C(O)C3O)C2O)C(O)C1N (stereo not shown) [Compound K406] was tested, and the MIC [1, 8] was 8-64 mg per L, the MIC [2, 9] was over 500 mg per L and the MIC [3] was over 250 mg per L.

In the case of CCCCCCCOC1C(CO)OC(OC2C(N)CC(N)C(OC3OC(CN)C(O)C(O)C3O)C2O)C(O)C1N (stereo not shown) [Compound K407], the MIC [1] was 125 mg per L, the MIC [2, 9] was 125 mg per L and the MIC [3] was over 250 mg per L.

CCCCCCCCOC1[C@@H](N)[C@@H](O)C(O[C@@H]2C(N)CC(N)C(O[C@H]3OC(CN)[C@@H](O)[C@H](O)C3O)[C@@H]2O)O[C@@H]1CO (stereo partly shown) [Compound K408] was tested, and the MFC ([4]; ATCC64124) was 9.8 µg/mL (≈ 16.4 µM), the MIC ([4]; ATCC64124, 48 h) was 9.8 µg/mL (≈ 16.4 µM) and the MIC ([5]; first of two separate experiments) was 31.2 µg/mL. For the same compound, the MIC ([5]; second of two separate experiments) was 31.2 µg/mL, the “toxicity to human cervical cancer cell line HeLa” value [6] was “not toxic” and the “Viable Cells Percentage Compared to Control” value ([6]; HeLa, 1 μg/mL) was 139.37%. For the same compound, the “Viable Cells Percentage Compared to Control” value ([6]; HeLa, 10 μg/mL) was 156.92%, the “Viable Cells Percentage Compared to Control” value ([6]; HeLa, 100 μg/mL) was 144.82% and the “Viable Cells Percentage Compared to Control” value ([6]; HeLa, 1000 μg/mL) was 138.39%. For the same compound, the “effect on growth of cells (number of viable cells)” value ([6]; HeLa, wells treated with compound) was “promoted growth of cells”, the MIC ([1]; Staphylococcus aureus, ATCC25923, S. aureus 25923, 37° C., 24 hours, read-out: MIC) was 125 µg/mL (≈ 209 µM) and the MIC ([7]; RPMI 1640, 35° C., 48 hours) was 1.2 µg/mL (≈ 2.01 µM). The MFC ([7]; subculture on Sabouraud dextrose agar after MIC test) was 2.4 µg/mL (≈ 4.02 µM) and the MIC ([2]; Fusarium graminearum, B45A, 48 h) was 31.3 µg/mL (≈ 52.5 µM).

In the case of CCCCCCCCCOC1C(CO)OC(OC2C(N)CC(N)C(OC3OC(CN)C(O)C(O)C3O)C2O)C(O)C1N (stereo not shown) [Compound K409], the MIC [1, 8] was over 250 mg per L, the MIC [2, 9] was 62.5 mg per L and the MIC [3] was over 250 mg per L.

CCCCCCCCCCOC1C(CO)OC(OC2C(N)CC(N)C(OC3OC(CN)C(O)C(O)C3O)C2O)C(O)C1N (stereo not shown) [Compound K410] gave an MIC [1, 8] of 125 mg per L, an MIC [2, 9] of 62.5 mg per L and an MIC [3] of over 250 mg per L.

CCCCCCCCCCCCOC1C(CO)OC(OC2C(N)CC(N)C(OC3OC(CN)C(O)C(O)C3O)C2O)C(O)C1N (stereo not shown) [Compound K412] was tested, and the MIC [1, 8] was 64 mg per L, the MIC [2, 9] was over 500 mg per L and the MIC [3] was 125-250 mg per L.

CCCCCCCCCCCCCCOC1C(CO)OC(OC2C(N)CC(N)C(OC3OC(CN)C(O)C(O)C3O)C2O)C(O)C1N (stereo not shown) [Compound K414] gave an MIC [1, 8] of over 250 mg per L, an MIC [2, 9] of over 500 mg per L and an MIC [3] of over 250 mg per L.

With CCCCCCCCOC[C@H]1OC(O[C@@H]2C(N)CC(N)C(O[C@H]3OC(CN)[C@@H](O)[C@H](O)C3O)[C@@H]2O)[C@H](O)[C@H](N)C1O (stereo partly shown) [Compound K608] the “toxicity to human cervical cancer cell line HeLa” value [6] was “not toxic”, the “Viable Cells Percentage Compared to Control” value ([6]; HeLa, 1 μg/mL) was 79.47% and the “Viable Cells Percentage Compared to Control” value ([6]; HeLa, 10 μg/mL) was 107.9%. The “Viable Cells Percentage Compared to Control” value ([6]; HeLa, 100 μg/mL) was 75.36%, the “Viable Cells Percentage Compared to Control” value ([6]; HeLa, 1000 μg/mL) was 86.49% and the cell viability ([6]; HeLa, at all concentration) was about 80%.

Compound CCCCOCC1OC(OC2C(N)CC(N)C(OC3OC(CN)C(O)C(O)C3O)C2O)C(O)C(N)C1OCCCC (stereo not shown) [Compound K4604] has an MIC [1, 8] of over 250 mg per L, an MIC [2, 9] of 125 mg per L and an MIC [3] of over 250 mg per L.

With CCCCCCOCC1OC(OC2C(N)CC(N)C(OC3OC(CN)C(O)C(O)C3O)C2O)C(O)C(N)C1OCCCCCC (stereo not shown) [Compound K4606] the MIC [1, 8] was 32-125 mg per L, the MIC [2, 9] was 3.9 mg per L and the MIC [3] was over 250 mg per L.
